In patent publication US11752120B2, “Use of succinic acid in increasing sensitivity of bacteria to antibiotics” (SUN YAT-SEN UNIVERSITY, priority 2018, dated 2023):
Where two headings read alike, the source gives them in different places.

Assays:
[1] = tested on: clinical Escherichia coli YT16 and YT28; conditions: 6 hours (FIG. 9)
Method: The cultured bacteria were washed and resuspended in normal saline, OD600 value was adjusted to 1.0, and 1 mL of bacterial cells were taken for ultrasonication, and after centrifugation, the supernatant was taken to determine the antibiotic content. The ampicillin ELISA rapid diagnostic kit (purchased from Shenzhen Lvshiyuan Biotechnology Co., Ltd., with a detection range of 2 to 1000 g/mL) was used for detection and the specific steps are as follows: 50 μL of sample (or standard) and 50 μL of antibody were added into a 96-well plate, mixed gently, and incubated at 25° C. for 30 minutes, and the plate was washed 4 to 5 times; 100 μL of enzyme standard was added, mixed gently, and incubated away from light at 25° C. for 30 minutes, and the plate was washed 4 to 5 times; 50 μL of substrates A and B was added respectively, mixed gently, and incubated away from light at 25° C. for 15 minutes; and finally, a stop solution was added to stop the reaction, and an enzyme-labeled instrument was set to measure the absorbance of the reaction product at 450 nm. A standard curve was drawn, with the percent absorbance of the standard as an ordinate and semi-log of the concentration of the ampicillin standard (ng/mL) as the abscissa. AMP actual concentration=sample detection concentration xdilution multiple.

[2] = tested on: clinical Escherichia coli biofilm; assay: In vitro bactericidal assay of biofilm; assay type: cell-based; conditions: catheter biofilm, 6 hours; succinic acid 580 mg/kg; ampicillin 2000 mg/kg for YT16, 500 mg/kg for YT28
Method: (§1) […] of clinical Escherichia coli (YT3, YT11, YT12, YT16, YT17, YT21, YT22, YT23, YT28, YT33) were picked, monocloned into LB medium, and cultured overnight, then were transferred into 2 mL fresh LB medium at 1:200, and added with a 6 mm PE-50 biological catheter that was sterilized by UV, and cultured in a 37° C. incubator for culture for 24 hours. The bacterial solution was replaced with 1 mL of LB medium daily, and the catheter was continuously cultured for 3 days. The prepared biofilm was washed 5 times with 1 mL of sterile normal saline, and then placed in a 1.5 mL EP tube.
The assay was divided into 4 groups: normal saline control group, succinic acid group, ampicillin group, ampicillin+succinic acid group, and the catheters were treated in a shaker at 37° C. and 200 rpm. A dosage of succinic acid was 580 mg/kg, and a dosage of ampicillin was 2000 mg/kg for YT16, and 500 mg/kg for YT28. After 6 hours, ultrasonic cleaning was conducted for 15 minutes, the biofilm on the catheter was eluted and thoroughly mixed, and after gradient dilution, spot plate counting was performed. The formula for calculating the bacterial survival rate is: number of viable bacteria in each group/number of viable bacteria in the control group×100%.

[3] = tested on: clinical Escherichia coli YT16 and YT28; conditions: 6 hours (FIG. 10)
Method: A concentration of the treated bacteria was adjusted to 106 CFU/mL, 1 mL of the treated bacteria was taken and transferred into a 1.5 mL EP tube, 10 μL of 3 mM DiOC2 (3,3′-diethyloxa-carbocyanine iodide) was added, and oscillation and incubation were performed for 30 minutes after mixing sufficiently. The bacteria were transferred to a flow cytometry analysis tube before use on the machine, a FACSCalibur flow cytometer (Becton Dickinson, San Jose, Calif., USA) was used for detection, and parameter settings were performed according to the instrument operating procedures. The dye DiOC2 (3) has a green fluorescence excitation wavelength of 488 nm, an emission wavelength of 530 nm, a red fluorescence excitation wavelength of 488 nm, and an emission wavelength of 610 nm. The ratio of the red light intensity to the green light intensity indicates the intensity of the membrane potential, and calculation formula of the proton motive force (PMF) value is LOG (10^3/2*Y mean/X mean). Y mean and X mean represent red light intensity and green light intensity, respectively. Determination was performed according the instructions of the BacLight bacterial membrane potential kit (Invitrogen) kit.

[4] = tested on: clinical Escherichia coli YT16 and YT28; assay: Viable bacteria count / survival rate after antibiotic with or without succinic acid in M9 medium; assay type: cell-based
Method: A single colony of clinical bacteria was picked from a solid LB plate and was inoculated in 5 mL LB liquid medium for culture at 37° C. and 200 rpm for 16 hours, and then was inoculated in 100 mL LB liquid medium at a ratio of 1:100 (v/v) and was cultured at 37° C. until OD600 value was 1.0. 20 mL of bacterial solution was collected and centrifuged at 8000 rpm for 5 minutes, the supernatant was cleared and bacterial cells were washed with an equal volume of 0.85% normal saline, and finally the bacterial cells were suspended with 1×M9 basic medium (containing 10 mM acetate), the OD value of the bacterial solution was adjusted to 0.5, and then 5 mL of the bacterial solution was aliquoted in a test tube for the following experimental studies.
The survival rates of the clinical bacteria in medium with adding succinic acid and without adding succinic acid at the same antibiotic concentration were compared.
The formula is the number of viable bacteria when different concentrations of succinic acid were added/the number of viable bacteria without adding succinic acid×100%.
In order to study whether clinical Escherichia coli has effect on penicillin antibiotics after adding succinic acid, two clinical Escherichia coli samples of YT16 and YT28 were prepared according to step 2 in Embodiment 1, 20 mM succinic acid and 3 kinds of penicillin were added respectively, […], the number of viable bacteria was counted, and the survival rate was calculated. […]

[5] = tested on: clinical Escherichia coli biofilm; conditions: mice
Method: as §1
Further, mice were used as test animals, and the prepared clinical Escherichia coli biofilm was implanted into the mouse urethra to construct a mouse chronic urinary tract infection model for conducting an in vivo clinical Escherichia coli clearance test was performed: a 6-mm PE-50 biological catheter of a clinical Escherichia coli biofilm formed by culture for 3 days was implanted into the urethra of a 5-week-old Kunming female mouse (about 20 g). After 48 hours, mice were divided into 2 groups of 5 mice each, which were the ampicillin group and the ampicillin+succinic acid group. […] 24 hours after the last injection, the catheter tube was taken into normal saline to suspend the biofilm bacteria in the ultrasound, and gradient dilution and plate counting were performed to calculate the bacterial survival rate on the catheter biofilm. The calculation formula is the number of viable bacteria in the injection substance group/number of viable bacteria in the control group×100%.

[6] = YT16, 10 mg/mL ampicillin + 1.25 mM succinic acid, 4 hours (FIG. 3)
[7] = YT16, 10 mg/mL ampicillin + 20 mM succinic acid, 4 hours (FIG. 3)
[8] = YT28, 10 mg/mL ampicillin + 1.25 mM succinic acid, 4 hours (FIG. 3)
[9] = YT28, 10 mg/mL ampicillin + 20 mM succinic acid, 4 hours (FIG. 3)

For `O=C(O)CCC(=O)O` [succinic acid], the “increase of the number of antibiotics (ampicillin) in the bacteria” value ([1]; YT16, ampicillin and succinic acid vs only ampicillin) was 5.97 times, the “increase of the number of antibiotics (ampicillin) in the bacteria” value ([1]; YT28, ampicillin and succinic acid vs only ampicillin) was 7.99 times and the “clearance of clinical Escherichia coli on the biofilms, used alone” value [2] was “cannot clear”. For the same molecule, the “increase of proton motive force of the bacteria” value ([3]; YT16, succinic acid added vs control without) was 1.2 times, the “increase of proton motive force of the bacteria” value ([3]; YT28, succinic acid added vs control without) was 1.45 times and the survival rate ([4]; YT16, 2.5 mg/mL ampicillin after adding 20 mM succinic acid, 4 hours) was 30.06%. The survival rate ([4]; YT16, 5 mg/mL ampicillin after adding 20 mM succinic acid, 4 hours) was 2.06%, the bacterial survival rate [4, 6] was 69.23% and the bactericidal efficiency [4, 6] was 1.07 times. It also gave a bacterial survival rate [4, 7] of 1.19%, a bactericidal efficiency [4, 7] of 61 times and a survival rate ([4]; YT16, 10 mg/mL ampicillin after adding 20 mM succinic acid, 4 hours (FIG. 1)) of 0.41%. It also gave a survival rate ([4]; YT16, 10 mg/mL ampicillin and 20 mM succinic acid, 1 hour (FIG. 2)) of 71.54%, a survival rate ([4]; YT16, 10 mg/mL ampicillin and 20 mM succinic acid, 4 hours (FIG. 2)) of 0.78% and a survival rate ([4]; YT16, 10 mg/mL ampicillin and 20 mM succinic acid, 7 hours (FIG. 2)) of 0.01%. For the same molecule, the “increase of sensitivity to penicillin G sodium salt” value ([4]; YT16, 20 mM succinic acid + 0.5 mg/mL penicillin G sodium salt, 4 hours) was 4.96 times, the “increase of sensitivity to penicillin G sodium salt” value ([4]; YT16, 20 mM succinic acid + 0.75 mg/mL penicillin G sodium salt, 4 hours) was 5.13 times and the “increase of sensitivity to carbenicillin” value ([4]; YT16, 20 mM succinic acid + 1.25 mg/mL carbenicillin, 4 hours) was 1.99 times. For the same molecule, the “increase of sensitivity to carbenicillin” value ([4]; YT16, 20 mM succinic acid + 2.5 mg/mL carbenicillin, 4 hours) was 11.65 times, the “increase of sensitivity to amoxicillin” value ([4]; YT16, 20 mM succinic acid + 5 mg/mL amoxicillin, 4 hours) was 15.86 times and the “increase of sensitivity to amoxicillin” value ([4]; YT16, 20 mM succinic acid + 7.5 mg/mL amoxicillin, 4 hours) was 3.37 times. The bactericidal efficiency ([4]; YT16, 20 mM succinic acid + 10 mg/mL ampicillin vs ampicillin only, at 1 hour (FIG. 2)) was 1.33 time, the bactericidal efficiency ([4]; YT16, 20 mM succinic acid + 10 mg/mL ampicillin vs ampicillin only, at 4 hours (FIG. 2)) was 60.66 times and the bactericidal efficiency ([4]; YT16, 20 mM succinic acid + 10 mg/mL ampicillin vs ampicillin only, at 7 hours (FIG. 2)) was 1744.19 times. The bactericidal efficiency increase ([4]; YT16, 20 mM succinic acid added to 2.5 mg/mL ampicillin, 4 hours, vs ampicillin alone) was “more than 2 times”, the bactericidal efficiency increase ([4]; YT16, 20 mM succinic acid added to 5 mg/mL ampicillin, 4 hours, vs ampicillin alone) was 16.75 times and the bactericidal efficiency increase ([4]; YT16, 20 mM succinic acid added to 10 mg/mL ampicillin, 4 hours, vs ampicillin alone (FIG. 1)) was 62.25 times. The bactericidal efficiency increase ([4]; YT16, 20 mM succinic acid added to 20 mg/mL ampicillin, 4 hours, vs ampicillin alone) was 105.96 times, the “enhancement of sensitivity to different kinds of antibiotics” value ([4]; YT16, 20 mM succinic acid with gentamicin, ciprofloxacin, tetracycline, erythromycin, clindamycin or rifampin, 4 hours (FIG. 6)) was “about 2 times” and the survival rate ([4]; YT16, 20 mg/mL ampicillin after adding 20 mM succinic acid, 4 hours) was 0.12%. The survival rate ([4]; YT28, 2.5 mg/mL ampicillin after adding 20 mM succinic acid, 4 hours) was 41.62%, the survival rate ([4]; YT28, 5 mg/mL ampicillin after adding 20 mM succinic acid, 4 hours) was 12.71% and the bacterial survival rate [4, 8] was 80.31%. It also gave a bactericidal efficiency [4, 8] of 1.07 times, a bacterial survival rate [4, 9] of 4.24% and a bactericidal efficiency [4, 9] of 20 times. It also gave a survival rate ([4]; YT28, 10 mg/mL ampicillin after adding 20 mM succinic acid, 4 hours (FIG. 1)) of 1.7%, a survival rate ([4]; YT28, 10 mg/mL ampicillin and 20 mM succinic acid, 1 hour (FIG. 2)) of 66.81% and a survival rate ([4]; YT28, 10 mg/mL ampicillin and 20 mM succinic acid, 4 hours (FIG. 2)) of 1.25%. The survival rate ([4]; YT28, 10 mg/mL ampicillin and 20 mM succinic acid, 7 hours (FIG. 2)) was 0.18%, the “increase of sensitivity to penicillin G sodium salt” value ([4]; YT28, 20 mM succinic acid + 0.5 mg/mL penicillin G sodium salt, 4 hours) was 2.66 times and the “increase of sensitivity to penicillin G sodium salt” value ([4]; YT28, 20 mM succinic acid + 0.75 mg/mL penicillin G sodium salt, 4 hours) was 9.34 times. For the same molecule, the “increase of sensitivity to carbenicillin” value ([4]; YT28, 20 mM succinic acid + 1.25 mg/mL carbenicillin, 4 hours) was 1.8 times, the “increase of sensitivity to carbenicillin” value ([4]; YT28, 20 mM succinic acid + 2.5 mg/mL carbenicillin, 4 hours) was 15.85 times and the “increase of sensitivity to amoxicillin” value ([4]; YT28, 20 mM succinic acid + 5 mg/mL amoxicillin, 4 hours) was 13.94 times. For the same molecule, the “increase of sensitivity to amoxicillin” value ([4]; YT28, 20 mM succinic acid + 7.5 mg/mL amoxicillin, 4 hours) was 31.85 times, the bactericidal efficiency ([4]; YT28, 20 mM succinic acid + 10 mg/mL ampicillin vs ampicillin only, at 1 hour (FIG. 2)) was 1.44 time and the bactericidal efficiency ([4]; YT28, 20 mM succinic acid + 10 mg/mL ampicillin vs ampicillin only, at 4 hours (FIG. 2)) was 21.45 times. The bactericidal efficiency ([4]; YT28, 20 mM succinic acid + 10 mg/mL ampicillin vs ampicillin only, at 7 hours (FIG. 2)) was 78.34 times, the bactericidal efficiency increase ([4]; YT28, 20 mM succinic acid added to 2.5 mg/mL ampicillin, 4 hours, vs ampicillin alone) was “more than 1.65 times” and the bactericidal efficiency increase ([4]; YT28, 20 mM succinic acid added to 5 mg/mL ampicillin, 4 hours, vs ampicillin alone) was 4.42 times. The bactericidal efficiency increase ([4]; YT28, 20 mM succinic acid added to 10 mg/mL ampicillin, 4 hours, vs ampicillin alone (FIG. 1)) was 21.06 times, the bactericidal efficiency increase ([4]; YT28, 20 mM succinic acid added to 20 mg/mL ampicillin, 4 hours, vs ampicillin alone) was 34.48 times and the survival rate ([4]; YT28, 20 mg/mL ampicillin after adding 20 mM succinic acid, 4 hours) was 0.79%. The “bactericidal efficiency increase on catheter biofilm” value ([5]; i.p. 590 mg/kg succinic acid + ampicillin (2000 or 500 mg/kg) twice a day for 3 days vs ampicillin group, 1st of the 9 strains (YT3 by order of b93)) was 14 times, the “bactericidal efficiency increase on catheter biofilm” value ([5]; i.p. 590 mg/kg succinic acid + ampicillin twice a day for 3 days vs ampicillin group, 2nd of the 9 strains (YT11 by order of b93)) was 5 times and the “bactericidal efficiency increase on catheter biofilm” value ([5]; i.p. 590 mg/kg succinic acid + ampicillin twice a day for 3 days vs ampicillin group, 3rd of the 9 strains (YT12 by order of b93)) was 53 times. For the same molecule, the “bactericidal efficiency increase on catheter biofilm” value ([5]; i.p. 590 mg/kg succinic acid + ampicillin twice a day for 3 days vs ampicillin group, 4th of the 9 strains (YT16 by order of b93)) was 30 times, the “bactericidal efficiency increase on catheter biofilm” value ([5]; i.p. 590 mg/kg succinic acid + ampicillin twice a day for 3 days vs ampicillin group, 5th of the 9 strains (YT17 by order of b93)) was 5 times and the “bactericidal efficiency increase on catheter biofilm” value ([5]; i.p. 590 mg/kg succinic acid + ampicillin twice a day for 3 days vs ampicillin group, 6th of the 9 strains (YT21 by order of b93)) was 9 times. The “bactericidal efficiency increase on catheter biofilm” value ([5]; i.p. 590 mg/kg succinic acid + ampicillin twice a day for 3 days vs ampicillin group, 7th of the 9 strains (YT22 by order of b93)) was 38 times, the “bactericidal efficiency increase on catheter biofilm” value ([5]; i.p. 590 mg/kg succinic acid + ampicillin twice a day for 3 days vs ampicillin group, 8th of the 9 strains (YT23 by order of b93)) was 17 times and the “bactericidal efficiency increase on catheter biofilm” value ([5]; i.p. 590 mg/kg succinic acid + ampicillin twice a day for 3 days vs ampicillin group, 9th of the 9 strains (YT28 by order of b93)) was 53 times.
